Measured values taken from patent US20260199289A1, “USE OF GLYCOGEN METABOLISM INHIBITORS FOR THE TREATMENT OF CANCER” (THE UNIVERSITY OF VERMONT AND STATE AGRICULTURAL COLLEGE, priority 2022, published 2026).
“Also recorded” adds a separate entry of the source. Where two headings read alike, the source gives them in different places.

How the values were obtained:
8505C cells [1] = assay: Glycogen content (colorimetric assay, TEM) in ATC cells; assay type: cell-based, human; details: ATC cells (8505C), CP-91,149 50 μM, 24-hour incubation, colorimetry and TEM
Experimental: (§1) Transmission Electron Microscopy of Glycogen Deposits—Cells were seeded in 10 cm dishes and allowed to adhere overnight. […] Cells were then rinsed with PBS and lifted with trypsin for preparation for TEM as described previously. Thwe et al., “Cell-intrinsic Glycogen Metabolism Supports Early Glycolytic Reprogramming Required for Dendritic Cell Immune Responses,” Cell Metabolism 26:558-567.e555 (2017), which is hereby incorporated by reference in its entirety.
PYGB RNA Interference—For validating successful PYGB knockdown, 4.0×10^4 cells were plated in 12 well plates containing 0.2% Lipofectamine™ 3000 Transfection Reagent and the indicated concentration of siRNA targeting PYGB or control siRNA in 1 ml CTM. RNA was extracted 72 hours later for RT-qPCR analysis and protein was extracted 96 hours later for immunoblotting. For measuring the effect of PYGB knockdown on cell viability, 1.0×10^3 cells were seeded in 96 well plates with 0.15% Lipofectamine™ 3000 Transfection Reagent and the indicated concentration of siRNA targeting PYGB or control siRNA in 200 μl CTM for 7 days before conducting the SRB assay. For measuring the effect of PYGB knockdown on glycogen content, 6.5×10^5 cells were seeded in 10 cm dishes with 0.2% Lipofectamine™ 3000 Transfection Reagent and the indicated concentration of siRNA targeting PYGB or control siRNA in 10 ml CTM for 4 days preceding cell lysis for glycogen determination.
(§2) Quantification of Levels of Glycogen, Glucose-1-Phosphate, Glucose-6-Phosphate, Lactate, ATP, Glucose, NADPH, and Glutathione—Briefly, cells were seeded in 10 cm dishes (for measuring glycogen and NADPH), 6 well plates (GIP, G6P, lactate, glucose, and glutathione), or 96 well plates (ATP) and allowed to adhere overnight. CTM was aspirated and cells were rinsed with PBS before application of compounds dissolved in CTM for 24 hours, at which point cells were ~90% confluent. CTM was then aspirated, cells were rinsed with PBS, and lysed according to the respective manufacturer protocol (see Table 4) for metabolite analysis.

8505C cells [2] = assay: Quantification of G1P, G6P, lactate, ATP, glucose, NADPH and glutathione; assay type: cell-based, human; details: 50 μM CP-91,149, 24 hours
Experimental: as §2

Nthy-ori-3-1 cells [3] = assay: Glycogen content (colorimetric assay, TEM) in normal thyroid cells; assay type: cell-based, human; details: Nthy-ori-3-1 normal thyroid cells, CP-91,149 50 μM, 24-hour incubation
Experimental: as §1, §2

HepG2 cells = details: hepatocellular carcinoma; cited from earlier work
8505C thyrospheres = assay: ATC stem cell thyrosphere growth; assay type: cell-based, human; details: 8505C stem cells, day 3 compared to day 1
Description: Bolf et al., “Thyroid Hormone Receptor Beta Induces a Tumor Suppressive Program in Anaplastic Thyroid Cancer,” Molecular Cancer Research 18(10):1443-1452 (2020), which is hereby incorporated by reference in its entirety. Thyrospheres per well were counted and imaged using a digital camera (Diagnostics Instruments) connected to a Nikon Eclipse TS100 inverted microscope.

8505C cells [4] = assay: Immunoblot of apoptosis markers and Ki-67 in ATC cells; assay type: cell-based, human; details: for apoptosis (PARP, caspase 9 and caspase 7 cleavage): six hours
Experimental: (§3) Briefly, proteins were isolated from whole cells in lysis buffer (20 mM Tris-HCl (pH 8), 137 mM NaCl, 10% glycerol, 1% Triton X-100, and 2 mM EDTA), quantified via Pierce™ BCA Protein Assay Kit (Thermo Fisher Scientific), and 25 μg protein/sample were resolved by polyacrylamide gel electrophoresis and immobilized onto nitrocellulose membranes. Membranes were blocked with 5% w/v BSA in TBS and 0.1% v/v Tween20 (Gold Bio, St Louis, MO, USA) for one hour at room temperature and incubated with primary antibodies overnight. Membranes were washed with TBS-0.1% Tween20 and secondary antibodies were applied for 1 hour at room temperature in 5% w/v BSA in TBS and 0.1% v/v Tween20. Immunoreactive proteins were detected by enhanced chemiluminescence (Thermo Scientific) on a ChemiDoc XRS+ (Bio-Rad Laboratories). Densitometry analysis was performed using ImageJ.

8505C tumors = assay: 8505C xenograft tumor growth in nude mice; assay type: in vivo, mouse; details: intraperitoneal, 50 mg/kg CP-91,149, 10 mg/kg sorafenib, 6-7 days a week
Experimental: Ethics statement and animal modeling—All animal procedures were approved by Institutional Animal Care and Use Committee (IACUC) at the University of Vermont. All animals were maintained in pathogen-free conditions and cared for in accordance with IACUC policies and certification. All surgeries were performed with isoflurane anesthesia. Temperature-controlled post-surgical monitoring was implemented to minimize suffering. Mice carrying anaplastic thyroid tumors were euthanized at designated time points for tumor collection. Signs of ulceration or a maximum individual tumor size of 2000 mm^3 were used as a protocol-enforced endpoint.
Mice were given food and water ad libitum. […] These doses were based on previous reports.

Nthy-ori-3-1 cells [5] = assay: Immunoblot of apoptosis markers and Ki-67 in normal thyroid cells; assay type: cell-based, human
Experimental: as §3

8505C cells [6] = assay: Metabolic flux analysis (Seahorse ECAR and OCR); assay type: cell-based, human; details: for extracellular acidification rate (ECAR): 8505C cells; for oxygen consumption rate (OCR): 50 μM CP-91,149, 24 hours
Experimental: Metabolic Flux Analysis—Thyroid cells (5.0×10^4) were plated in a 96 well Seahorse culture plate with compounds of interest diluted in 200 μl CTM for 24 hours. Cells were washed with PBS and equilibrated for 1 hour at 37° C. in a non-CO2 incubator with compounds of interest diluted in Seahorse RPMI (supplemented with 11.1 mM glucose, 2 mM glutamine, and 5% serum) before analysis of OCR and ECAR in a Metabolic Flux Analyzer (Seahorse Bioscience, North Billerica, MA 96XP).

CN(C)C(=O)[C@H](O)[C@H](Cc1ccccc1)NC(=O)c1cc2cc(Cl)ccc2[nH]1 [CP-91,149, 5-chloro-N-[(2S,3R)-4-(dimethylamino)-3-hydroxy-4-oxo-1-phenylbutan-2-yl]-1H-indole-2-carboxamide]
glycogen content (8505C cells [1]): increased glycogen content; also recorded: causes a buildup of glycogen | glycogen content (8505C cells [1]; listed as CP): significantly increased glycogen content | NADPH level (8505C cells [2]; 8505C cells): decreased NADPH levels; also recorded: decreases the available supply of NADPH | extracellular glucose / glucose uptake from the cell culture media (8505C cells [2]; 8505C cells): causes an increase in glucose uptake from the cell culture media | glucose-1-phosphate (G1P) level (8505C cells [2]; 8505C cells): causes a buildup in glucose-1-phosphate | glucose-6-phosphate (G6P) level (8505C cells [2]; 8505C cells): a reduction in glucose-6-phosphate | lactate production (8505C cells [2]; 8505C cells): enhances | reduced glutathione (GSH) (8505C cells [2]; 8505C cells): decreases the relative amount of reduced glutathione (GSH) | NADPH level (8505C cells [2]; 8505C cells, listed as CP): drastic decrease in NADPH | extracellular glucose / glucose uptake from the cell culture media (8505C cells [2]; 8505C cells, listed as CP): significant reduction in extracellular glucose | glucose-1-phosphate (G1P) level (8505C cells [2]; 8505C cells, listed as CP): a buildup of the glycogen monomer, glucose-1-phosphate (G1P) | glucose-6-phosphate (G6P) level (8505C cells [2]; 8505C cells, listed as CP): a decrease in the glycolytic intermediate, glucose-6-phosphate (G6P) | reduced glutathione (GSH) (8505C cells [2]; 8505C cells, listed as CP): concomitant loss in reduced glutathione (GSH) | ATP levels (8505C cells [2]; ATC cells): decreases the levels of ATP | glycogen content (Nthy-ori-3-1 cells [3]): increased glycogen content | glycogen content (Nthy-ori-3-1 cells [3]; listed as CP): significantly increased glycogen content | ROS levels (HepG2 cells): increased ROS levels | autophagic adaptations (HepG2 cells): triggered autophagic adaptations | intrinsic apoptosis (HepG2 cells): induce intrinsic apoptosis | thyrosphere growth / stem cell response (8505C thyrospheres): inhibits 8505C thyrosphere growth | thyrosphere growth / stem cell response (8505C thyrospheres; listed as CP): concentration-dependent response | proliferation marker Ki-67 expression (8505C cells [4]): inhibits proliferation | proliferation marker Ki-67 expression (8505C cells [4]; listed as CP): reduced expression of the proliferation marker Ki-67 | apoptosis (PARP, caspase 9 and caspase 7 cleavage) (8505C cells [4]): induced apoptosis in ATC cells | apoptosis (PARP, caspase 9 and caspase 7 cleavage) (8505C cells [4]; listed as CP): significant PARP, caspase 9, and caspase 7 cleavage | apoptosis (PARP, caspase 9 and caspase 7 cleavage) (8505C cells [4]; listed as CP-911,49): induces apoptosis | tumor growth (8505C tumors): significantly impaired tumor growth in vivo; also recorded: severely blunted ATC tumor growth in vivo; also recorded: restrict ATC tumor growth | tumor growth (8505C tumors; listed as CP): notably stunted; also recorded: equally as effective as sorafenib | apoptosis (PARP and caspase cleavage) (Nthy-ori-3-1 cells [5]): but not normal thyroid cells | apoptosis (PARP and caspase cleavage) (Nthy-ori-3-1 cells [5]; listed as CP): did not significantly induce apoptosis | proliferation (Ki-67 levels) (Nthy-ori-3-1 cells [5]; listed as CP): not affected | extracellular acidification rate (ECAR) (8505C cells [6]): enhances extracellular acidification rate | extracellular acidification rate (ECAR) (8505C cells [6]; listed as CP): modestly but significantly enhanced ECAR | increase of OCR to compensate for inhibition of glycolysis with 2-DG (8505C cells [6]; ATC cells, CP-treated versus vehicle-treated): unable to increase their oxidative phosphorylation | oxygen consumption rate (OCR) (8505C cells [6]; ATC cells): decreases the basal oxygen consumption rate | oxygen consumption rate (OCR) (8505C cells [6]; ATC cells, listed as CP): significantly limited the OCR
